Results reported in patent US12661353B2, “SPT5 inhibitors and uses thereof” (Yeda Research and Development Co. Ltd., priority 2020, dated 2026).

What was measured:
Type in all cases: cell-based, human
[1] = system: pro-inflammatory genes A20, CCL20, IL6, IL8, CXCL2, JUNB and IEX1; experiment: mRNA levels of pro-inflammatory genes under TNFα-induced conditions, HeLa, RT-qPCR; conditions: HeLa cells, SPI 1 hour then TNFα 1 hour
Procedure: Cell culture—HEK293T, HeLa, MCF7, Jurkat and mouse embryonic fibroblasts (MEFs) cells were grown and maintained in Dulbecco's modified Eagle's medium supplemented with 10% fetal calf serum (Gibco) and 1% penicillin-streptomycin. To avoid NF-κB activity, HeLa cells were kept from reaching confluence and re-plated no more than 10 times following initial thawing. To induce NF-κB activity, cells were treated with […] recombinant human TNF-α (Peprotech) for the indicated times. STHdh Q111 and STHdh Q7 striatal cell lines (Coriell Institute for Medical Research) were grown in Dulbecco's modified Eagle's medium supplemented with 10% fetal calf serum (Gibco), 1% penicillin-streptomycin and 0.4 mg/ml G418 at 33° C. The cells were re-plated no more than 5-6 times, as recommended.
RNA analysis—Total RNA was extracted using Tri-reagent (Bio-Lab Chemicals) and Direct-Zol™ RNA MiniPrep kit (Zymo Research). Following, cDNA was synthesized from […] of total RNA using a High-Capacity cDNA Reverse Transcription Kit (ABI, Thermo Fisher Scientific). cDNA samples were analyzed by quantitative PCR (qPCR) in a ViiA 7 Real-Time PCR System using Fast qPCRBIO SYBR Green Mix (PCR Biosystems).
In the next step, the effect of the identified SPIs on expression of the selected genes following NF-κB activation was analyzed. Specifically, Hela cells were pre-incubated with DMSO or SPI (50 μM or less) for 1 hour followed by treatment with TNFα for an additional 1 hour.

[2] = system: A20 gene; experiment: ChIP of Pol II and Spt5 occupancy of the A20 gene; conditions: for TNFα induction of Pol II and Spt5 levels at the A20 loci: TNFα+ 30 minutes; for Spt5 and Pol II occupancy at 3 loci of the A20 gene: basal conditions (TNFα-)
Procedure: Chromatin immunoprecipitation (ChIP)—HeLa cells were treated with DMSO (vehicle control) or the indicated compound (50 μM; 60 minutes), followed by TNF-α induction (30 minutes) in 100-mm plates. Following, the cells were cross-linked with 1% formaldehyde for 10 minutes at room temperature, and fixation was terminated by adding 1/20 volume of 2.5 M glycine.
Chromatin extraction and immunoprecipitation were carried out as previously described in Diamant et al., 2012. For immunoprecipitation (IP), 3 μg of anti-RNA polymerase II (ab817, Abcam) anti-Spt5 [previously described in Amir-Zilberstein et al., 2007] or control IgG (SC-2025, Santa Cruz Biotechnology) was added to 1 ml of the soluble chromatin DNA. IP and input samples were analyzed by qPCR as described above.
To further examine the impact of the identified SPIs on chromatin occupancy of Spt5 and Pol II, chromatin immunoprecipitation (ChIP) in the presence of DMSO, SPI-21 or SP-18 followed by 30 minutes TNFα treatment was performed. […] This finding is consistent with the increase in transcription under basal conditions exerted by SPI-21 but not by SPI-18 (FIG. 2A). Upon TNFα induction the levels of Pol II and Spt5 were dramatically elevated and this induction was diminished by both SPI-21 and SPI-18 at all the analyzed loci (FIG. 3G, TNFα+). This finding is consistent with the decrease in transcription under TNFα-induced conditions of both SPI-21 and SIP-18 (FIG. 3A).

[3] = system: A20 mRNA; experiment: Splicing of A20: mature/immature transcripts, RT-qPCR; conditions: following TNFα induction, 50 μM
Procedure: Bars represent the mean of at least 3±SEM independent experiments. The asterisks denote statistical significance differences relative to DMSO+TNFα control according to Student's t tests (typically one tailed, paired): *p<0.05; **p<0.01; ***p<0.005; ****p<0.001. […] Shown are mRNA levels of A20 (normalized to GAPDH) in Hela cells treated with SPI-21 and TNFα and incubated with actinomycin D for the indicated time points, as determined by real-time qPCR. The data points present the mean of 3±SEM independent experiments. […] Shown are levels of mature and immature transcripts in cells incubated for 1 hour with DMSO (vehicle control) or 50 μM of SPI-21 or SPI-18 followed by treatment with TNFα for an additional one hour, as determined by real-time qPCR using primers spanning exons 3 and 4 (mature, black arrows shown in the scheme of G, SEQ ID NOs: 47 and 48) or intron 1 and exon 2 (immature, red arrows shown in the scheme of G, SEQ ID NOs: 49 and 50). […] DMSO (vehicle control), SPI-21 or SPI-18 treated cells were induced by TNFα for the indicated times and the levels of IκBα and β-Tubulin proteins were analyzed by western blot as indicated. […] The occupancy of the A20 gene was analyzed by qPCR using primers from the first (A, SEQ ID NOs: 55 and 56), third (B, SEQ ID NOs: 57 and 58) and last (C, SEQ ID NOs: 59 and 60) exon-intron junctions. […]

Structure (SMILES)	Down-regulating transcription of pro-inflammatory genes under TNFα induced conditions (i.e. inhibiting transcription elongation of pro-inflammatory genes induced by Spt5) [1]	TNFα induction of Pol II and Spt5 levels at the A20 loci [2]	Spt5 and Pol II occupancy at 3 loci of the A20 gene [2]	mature/immature A20 mRNA ratio [3]
COc1ccc(C=CC(=O)c2cc(O)ccc2O)cc1 [SPI-21]	+++ (+++ represent >80% inhibition)	diminished	moderate but significant enhancement	clear decrease in mature/immature ratio
Nc1ccccc1SC(CC(=O)c1cccs1)c1cccs1 (centres unmarked) [SPI-18]	+ (+ >50%)	diminished	unchanged	clear decrease in mature/immature ratio
